Data from article PMC7821884, “BRAF inhibition protects against hearing loss in mice” (Science Advances, 2020).

Key:
[1] = test system: P42 FVB mice; assay: Cisplatin-induced hearing loss in adult mice (ABR, OHC counts, pERK)
Protocol: As described in Fig. 4A, baseline auditory brainstem response (ABR) thresholds for P42 FVB mice were established 1 week before experimental procedures. […] Animals were allowed 21 days after cisplatin injection to recover, and final ABR thresholds were recorded.
Ten milligrams of cisplatin (479306, Sigma-Aldrich) powder was dissolved in 10 ml of sterile saline (0.9% NaCl) at 37°C for 40 to 60 min. Cisplatin was administered to FVB mice at 30 mg/kg via intraperitoneal injection. One day before cisplatin injection, mice received 1 ml of saline by subcutaneous injection. To ameliorate dehydration after cisplatin injection, 1 ml of warm saline was injected twice per day for at least 7 days or until body weight started to recover. The cages of cisplatin-treated mice were placed on the heating pad for at least 7 days or until body weight began to recover. Fresh mush food was daily given for at least 7 days.
Compounds were dissolved in a mixture of 10% DMSO, 5% Tween 80 (P1754, Sigma-Aldrich), 40% PEG-E-300 (91462-1KG, Sigma-Aldrich), and 45% 0.9% saline.
ABR in mice was measured for left ears as described previously with minor modifications ([13], [34]). In brief, ABR waveforms were recorded in a sound booth (Industrial Acoustic Company) by using subdermal needles positioned in the skull, below the pinna, and at the base of the tail, and the responses were fed into a low-impedance Medusa digital biological amplifier system (RA4L; TDT; 20-dB gain). At each frequency, the stimulus intensity was reduced from 90 to 0 dB in 10-dB steps to determine the threshold decibel SPL when the electrical response was just above the noise floor. ABR waveforms were averaged in response to 500 tone bursts. The recorded signals were filtered by a band-pass filter from 300 Hz to 3 kHz. Pretreatment ABR recordings of adult FVB mice (aged 6 weeks) were acquired 1 week before all treatments, and posttreatment ABR measurements were recorded 21 days after cisplatin treatment or 14 days after noise exposure. ABR threshold was determined by the presence of any of three or more of the five waveform peaks. […] All thresholds and shifts were determined independently by two experimenters for each mouse. Individual ABR wave 1 amplitudes were measured as the difference between the positive peak and the following negative trough.
Cochleae from adult mice were prepared and examined as described previously ([85], [86]). All images were acquired with a confocal microscope (LSM 700 or 710, Zeiss). Samples were stained with phalloidin (A12379 or A12380, Invitrogen) or with antibodies for other markers. The following primary antibodies were used: anti–myosin VI (1:400; 25-6791; Proteus Bioscience), anti–myosin VIIa ([…];138-1-s, Developmental Studies Hybridoma Bank), anti-Tuj1 (1:250; 801201, BioLegend), anti-pERK (1:400; 9101S, Cell Signaling Technology), or anti-Ctbp2 (1:500; 612044, BD Transduction). Anti-rabbit Alexa Fluor 488 (1:400; A11034) and anti-mouse Alexa Fluor 647 (1:400; A31571) secondary antibodies were purchased from Invitrogen. ProLong gold antifade reagent with 4′,6-diamidino-2-phenylindole (P36941, Invitrogen) was used to counterstain nuclei.

[2] = test system: Tg(brn3c:GFP) zebrafish larvae neuromast HCs; assay: Zebrafish lateral line neuromast hair cell loss after cisplatin; assay type: in vivo
Text: Lateral line neuromasts of zebrafish are a well-established model for the study of drug protection from cisplatin or aminoglycoside toxicity because their HCs are considered homologous to mammalian HCs and readily accessible to compounds in vivo ([47]–[49]). As in our previous studies, MI1 (medial neuromast 1) and O1-2 (otic line) neuromasts were examined in Tg(brn3c:GFP) zebrafish larvae 5 days after fertilization ([50], [51]). […] Green fluorescent protein (GFP) (brn3c) and otoferlin staining were used to identify neuromast HCs. In fig.
Zebrafish (D. rerio) experimental larvae of either sex were obtained by pair mating of adult fish maintained at Boys Town National Research Hospital. We used zebrafish line Tg(brn3c:GFP) that expresses a membrane-bound GFP in HCs. Fish were maintained at 28.5°C in E3 media [5 mM NaCl, 0.17 mM KCl, 0.33 mM CaCl2, and 0.33 MgSO4 (pH 7.2)] at a density of 50 embryos/larvae per […] petri dish. Experimental animals were used at 5 days post-fertilization and cryo-anesthetized after treatment and before fixation. Average HC counts in our studies were obtained from the following three neuromasts: MI1 (medial neuromast 1) and O1 and O2 (otic line).

[3] = test system: HEI-OC1 cells; assay: Cell Titer-Glo cell viability assay, compound alone; assay type: cell-based; details: all concentrations tested
Text: All compounds were further characterized via Cell Titer-Glo cell viability assay to determine toxicity of the compound alone in HEI-OC1 cells (table S1 and dataset in the Supplementary Materials). […] The other BRAF inhibitors had similar IC50 in the micromolar range and were nontoxic to cells (table S1).
In these screens, caspase-3 cleavage was chosen as the end point indicating cisplatin-induced apoptosis, because it allowed the inhibition of cell death to be monitored at the level of any molecular target upstream of caspase-3 cleavage in the HEI-OC1 cell line. Cells were plated at a previously optimized concentration of 1600 cells per well in medium without γ-interferon to limit proliferation and tested against 50 μM cisplatin based on a previous dose–response curve. Tested compounds were dissolved in DMSO before addition to medium with a final DMSO concentration of <0.5%. The screens are described in detail in our previous publications ([12], [13]). […] Pifithrin-α was added to each plate as a screening quality control. The linearity of the Caspase-Glo 3/7 (Promega) assay, which enables the measurement of light emitted as a result of caspase-3/7 cleavage and is suitable for HTS, was validated, and it was verified that 0.5% DMSO had no effect on the cell death kinetics. Compounds were screened in triplicate at final concentrations ranging from 1 nM to 85 μM and incubated for 22 hours. […]

Compound: CC(C)(C)c1nc(-c2cccc(NS(=O)(=O)c3c(F)cccc3F)c2F)c(-c2ccnc(N)n2)s1 [dabrafenib]
- ERK phosphorylation in cochlear SCs after cisplatin ([1]; 100 mg/kg 45 min pretreatment, 1 hour after cisplatin 30 mg/kg i.p.): attenuated
- protection of ABR threshold at 16 kHz ([1]; 100 mg/kg oral, cisplatin 30 mg/kg i.p.): nearly full protection
- loss of OHCs in cochlea, combined with cisplatin ([1]; 100 mg/kg oral, cisplatin 30 mg/kg, 8-, 16-, 32-kHz regions): limited
- OHC loss, drug alone ([1]; 100 mg/kg oral, no cisplatin): No OHC loss
- whole-body toxicity or ototoxic effects ([1]; 3-day dabrafenib-alone treatment, weight, appearance/behavior, ototoxicity up to 21 days): did not observe whole-body toxicity or ototoxic effects
- survival rate of mice ([1]; cisplatin 30 mg/kg i.p., alone or combined with dabrafenib): 50%
- crossing of the blood-labyrinth barrier ([1]; inferred from effects in mice via oral delivery): crosses the blood-labyrinth barrier
- ABR wave 1 amplitude at 16 kHz versus cisplatin alone ([1]; significant at 90-dB SPL): higher
- protection from cisplatin-induced neuromast HC loss ([2]; 1 hour pretreatment, 6 hours 400 μM cisplatin, dabrafenib 100 nM): significant protection
- toxic effect of compound alone on neuromast HCs ([2]; all concentrations tested): no toxic effect
- toxicity of the compound alone, cell viability assay [3]: nontoxic
